Reference: patent US20070218460A1, “Method of Estimating Toxicity of Drug” (TAKEDA PHARMACEUTICAL COMPANY LIMITED, priority 2003, published 2007)

Legend:
depp = assay: Real-time quantitative PCR of PLsis marker gene expression; assay type: cell-based, human; details: HepG2 cells, 24 hr exposure, relative value, control group = 1.0, GAPDH internal standard, n=3
Description: (§1) Using RNeasy Mini Kit (QIAGEN), total RNA was purified from the cells, and cDNA was synthesized in a 100 μL system using TaqMan Reverse Transcription Reagents (PE Applied Biosystems).
(§2) As the primer for glyceraldehyde-3-phosphoric acid dehydrogenase (GAPDH) and VIC labeled probe, those attached to TaqMan GAPDH Control Reagents (PE Applied Biosystems) were used.
(§3) Using 100 μL of the reaction mixture containing 5 μL of cDNA (1×TaqMan Universal PCR Master Mix (PE Applied Biosystems), 200 nM forward primer, 200 nM reverse primer and 200 nM TaqMan probe), 40 cycles of (1 cycle=95° C., 15 sec; 60° C., 1 min) PCR were performed. PCR and fluorescence detection were performed using ABI PRISM Sequence Detector 7000 (PE Applied Biosystems). As the internal standard, GAPDH was used to amend the measurement values. For the determination of significant difference, t-test was used (n=3).
(§4) For each test compound, the expression variation rate of 12 genes each relative to the control group was determined.

serpina3 = assay: as above; assay type: cell-based, human; details: HepG2 cells, 24 hr exposure, relative value, control group = 1.0, GAPDH internal standard, n=3
Description: as §1, §2, §3, §4

fabp1 = assay: as above; assay type: cell-based, human; details: HepG2 cells, 24 hr exposure, relative value, control group = 1.0, GAPDH internal standard, n=3
Description: as §1, §2, §3, §4

flj22362 = assay: as above; assay type: cell-based, human; details: HepG2 cells, 24 hr exposure, relative value, control group = 1.0, GAPDH internal standard, n=3
Description: as §1, §2, §3, §4

nr0b2 = assay: as above; assay type: cell-based, human; details: HepG2 cells, 24 hr exposure, relative value, control group = 1.0, GAPDH internal standard, n=3
Description: as §1, §2, §3, §4

slc2a3 = assay: as above; assay type: cell-based, human; details: HepG2 cells, 24 hr exposure, relative value, control group = 1.0, GAPDH internal standard, n=3
Description: as §1, §2, §3, §4

mgc4171 = assay: as above; assay type: cell-based, human; details: HepG2 cells, 24 hr exposure, relative value, control group = 1.0, GAPDH internal standard, n=3
Description: as §1, §2, §3, §4

lss = assay: as above; assay type: cell-based, human; details: HepG2 cells, 24 hr exposure, relative value, control group = 1.0, GAPDH internal standard, n=3
Description: as §1, §2, §3, §4

hpn = assay: as above; assay type: cell-based, human; details: HepG2 cells, 24 hr exposure, relative value, control group = 1.0, GAPDH internal standard, n=3
Description: as §1, §2, §3, §4

kiaa1001 = assay: as above; assay type: cell-based, human; details: HepG2 cells, 24 hr exposure, relative value, control group = 1.0, GAPDH internal standard, n=3
Description: as §1, §2, §3, §4

tagln = assay: as above; assay type: cell-based, human; details: HepG2 cells, 24 hr exposure, relative value, control group = 1.0, GAPDH internal standard, n=3
Description: as §1, §2, §3, §4

asah1 = assay: as above; assay type: cell-based, human; details: HepG2 cells, 24 hr exposure, relative value, control group = 1.0, GAPDH internal standard, n=3
Description: as §1, §2, §3, §4

HepG2 cells [1] = assay: Highest concentration at which cells were viable after 72 hr exposure; assay type: cell-based, human
HepG2 cells [2] = assay: Electron-microscopic examination of PLsis induction potential (myelin-like structure)
Description: Using 30 kinds of the following commercially available drugs as test compounds, the level of PLsis induction potential was examined with the emergence of an intracellular myelin-like structure or a structure having a high electron density, which is an early image thereof, as an index by electronmicroscopic observation.
HepG2 cells (purchased from ATCC) were exposed to the test compound by a conventional method. HepG2 cells used were of the cell growth phase. The attached HepG2 cells were washed twice with. Dulbecco's phosphate buffered saline (calcium and magnesium salt free; PBS(−))(Dainippon Pharmaceutical Co., Ltd.) containing 0.05 w/v % EDTA, detached with a cell dissociation solution of 0.25 vol % trypsin-1 mmol/L EDTA (Gibco BRL) diluted 2-fold with PBS(−), centrifuged to remove the supernatant, and adjusted to a concentration of 2×10^5 cells/250 μL with a culture medium [Dulbecco's modified Eagle medium (DMEM)(Gibco BRL) supplemented with 50 U/mL penicillin (Gibco BRL)-[…] streptomycin (Gibco BRL) and 5 vol % FBS (Bio whittaker)]. DMSO alone or a culture medium containing the above-mentioned test compound in DMSO solution was dispensed to a well by 250 μL, the above-mentioned cell suspension (250 μL) was added, and cultured in a CO2 incubator (7100; Napco) under an atmosphere of 5% CO2—95% air at 37° C.
After culture for 72 hr, the culture medium was removed, and the cells were fixed with 1 w/v % glutaraldehyde solution. After fixing with 2 w/v % osmic acid for 2 hr by a conventional method and dehydrating with an alcohol series, the cells were embedded in a resin (Quetol 812). Ultrathin slices were prepared and, after electron staining, observed with an electron microscope (H-300; Hitachi) and photographed in 3 or more pictures per each sample (magnification ×5000). The processing after post-fixation was performed by Applied Medical Research.

Row | SMILES | expression variation rate depp (depp) | expression variation rate serpina3 (serpina3) | expression variation rate fabp1 (fabp1) | expression variation rate flj22362 (flj22362) | expression variation rate nr0b2 (nr0b2) | expression variation rate slc2a3 (slc2a3) | expression variation rate mgc4171 (mgc4171) | expression variation rate lss (lss) | expression variation rate hpn (hpn) | expression variation rate kiaa1001 (kiaa1001) | expression variation rate tagln (tagln) | expression variation rate asah1 (asah1) | addition concentration (highest concentration at which cells survived after 72 hr of culture) (HepG2 cells [1]) [µmol/L] | frequency of appearance of myelin-like structure (HepG2 cells [2])
1 | CN(C)CCCN1c2ccccc2Sc2ccc(Cl)cc21 [chlorpromazine] | 2.95 | 1.94 | 2.56 | 1.70 | 1.20 | 0.43 | 1.74 | 1.99 | 1.70 | 1.90 | 0.65 | 1.29 | 8.3 | ++
2 | C[C@H]1COc2c(N3CCN(C)CC3)c(F)cc3c(=O)c(C(=O)O)cn1c23 [levofloxacin] | 0.83 | 0.92 | 0.88 | 0.83 | 0.79 | 1.07 | 0.79 | 0.75 | 0.83 | 0.70 | 0.90 | 1.10 | 25 | −
3 | CN(C)CCCN1c2ccccc2CCc2ccc(Cl)cc21 [clomipramine] | 2.08 | 2.03 | 2.36 | 1.46 | 0.98 | 0.63 | 1.41 | 1.52 | 2.39 | 3.83 | 0.78 | 0.82 | 8.3 | +
4 | CN(C)C/C=C(/c1ccc(Br)cc1)c1cccnc1 [zimelidine] | 2.67 | 1.95 | 1.42 | 1.71 | 1.33 | 0.70 | 1.12 | 1.05 | 1.74 | 2.24 | 0.59 | 2.91 | 25 | +
5 | O=C(NCC1CCCCN1)c1cc(OCC(F)(F)F)ccc1OCC(F)(F)F (stereo not shown) [flecainide] | 1.73 | 1.60 | 1.50 | 1.65 | 1.02 | 0.46 | 1.57 | 1.22 | 1.26 | 2.10 | 0.86 | 2.42 | 25 | −
6 | CN[C@H]1CC[C@@H](c2ccc(Cl)c(Cl)c2)c2ccccc21 [sertraline] | 4.44 | 2.69 | 4.14 | 3.49 | 1.79 | 0.14 | 1.94 | 3.91 | 3.07 | 2.38 | 0.37 | 3.08 | 8.3 | ++
7 | CC[C@H]1OC(=O)[C@H](C)[C@@H](O[C@H]2C[C@@](C)(OC)[C@@H](O)[C@H](C)O2)[C@H](C)[C@@H](O[C@@H]2O[C@H](C)C[C@H](N(C)C)[C@H]2O)[C@](C)(OC)C[C@@H](C)C(=O)[C@H](C)[C@@H](O)[C@]1(C)O [clarithromycin] | 0.93 | 1.39 | 0.91 | 1.00 | 0.78 | 0.86 | 1.18 | 0.65 | 0.96 | 1.48 | 0.86 | 1.55 | 25 | −
8 | CC/C(=C(\c1ccccc1)c1ccc(OCCN(C)C)cc1)c1ccccc1 [tamoxifen] | 2.02 | 2.12 | 1.90 | 1.53 | 2.56 | 0.24 | 1.60 | 3.01 | 2.19 | 1.85 | 0.27 | 4.50 | 8.3 | ++
